Consider three compounds from patent US20020193383A1, “1-(N-phenylalkylaminoalkyl)piperazine derivatives substituted at position 2 of the phenyl ring” (Recordati S.A., Chemical and Pharmaceutical Comoany, priority 1997, published 2002).

The target of this test is T1, human 5-HT1A serotonergic receptor (Homo sapiens, UniProt P08908).
T1 construct: expressed in transfected cells; host or cells: HeLa (stably transfected)
T1 sequence (P08908 1-422): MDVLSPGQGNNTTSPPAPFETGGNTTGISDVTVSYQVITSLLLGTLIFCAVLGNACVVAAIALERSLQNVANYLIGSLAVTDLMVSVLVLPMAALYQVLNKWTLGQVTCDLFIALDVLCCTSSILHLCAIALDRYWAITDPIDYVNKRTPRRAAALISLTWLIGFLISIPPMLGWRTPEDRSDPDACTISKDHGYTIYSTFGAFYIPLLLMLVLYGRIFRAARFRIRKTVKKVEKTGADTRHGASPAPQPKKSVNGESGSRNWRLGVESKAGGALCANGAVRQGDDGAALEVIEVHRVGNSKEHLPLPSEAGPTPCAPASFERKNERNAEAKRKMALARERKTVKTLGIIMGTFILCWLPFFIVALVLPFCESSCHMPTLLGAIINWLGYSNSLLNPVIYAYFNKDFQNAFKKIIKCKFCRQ
The experiment in a line: Binding to recombinant human 5-HT1A receptors ([3H]8-OH-DPAT, HeLa cell membranes). The note with it: read-out: Binding affinity for the 5-HT1A receptor, Ki. As to the method:
Genomic clone G-21 coding for the human 5-HT1A serotonergic receptor is stably transfected in a human cell line (HeLa). HeLa cells were grown as monolayers in Dulbecco's modified Eagle's medium (DMEM), supplemented with 10% fetal calf serum and gentamicin ([…]), 5% CO2 at 37° C. Cells were detached from the growth flask at 95% confluence by a cell scraper and were lysed in ice-cold 5 mM Tris and 5 mM EDTA buffer (pH 7.4). Homogenates were centrifuged at 40000×g×20 min and pellets were resuspended in a small volume of ice-cold 5 mM Tris and 5 mM EDTA buffer (pH 7.4) and immediately frozen and stored at −70° C. until use. On the day of experiment, cell membranes were resuspended in binding buffer: 50 mM Tris HCl (pH 7.4), 2.5 mM MgCl2, 10 μM pargiline (Fargin et al., Nature 335, 358-360, 1988). Membranes were incubated in a final volume of 1 ml for 30 min at 30° C. with 0.2-1 nM [3H]8-OH-DPAT, in absence or presence of competing drugs; non-specific binding was determined in the presence of 10 μM 5-HT. The incubation was stopped by addition of ice-cold Tris-HCl buffer and rapid filtration through 0.2% polyethyleneimine pretreated Whatman GF/B or Schleicher & Schuell GF52 filters.
The inhibition of specific binding of the radioligands by the tested drugs was analyzed to estimate the IC50 value by using the non-linear curve-fitting program Allfit (De Lean et al., Am. J. Physiol. 235, E97-E102, 1978). The IC50 value was converted to an affinity constant (Ki) by the equation of Cheng & Prusoff (Cheng, Y. C.; Prusoff, W. H. Biochem. Pharmacol. 22, 3099-3108, 1973).

In the case of `COc1cc(OC(=O)C(C)C)ccc1N1CCN(CCN(C(=O)C2CCCCC2)c2ccccc2OC(F)(F)F)CC1` [Example 96, 1-[N-cyclohexylcarbonyl-N-(2-trifluoromethoxyphenyl)-2-aminoethyl]-4-[4-(2-methylpropionyloxy)-2-methoxyphenyl]piperazine], the Ki (in general, a dissociation constant, usually derived from enzyme kinetics or from competition with a known ligand) amounted to 1.2 nM. To `COc1cc(OC(C)=O)ccc1N1CCN(CCN(C(=O)C2CCCCC2)c2ccccc2OC(F)(F)F)CC1` [Example 94, 1-[N-cyclohexylcarbonyl-N-(2-trifluoromethoxyphenyl)-2-aminoethyl]-4-(4-acetoxy-2-methoxyphenyl)piperazine] belongs 2.14 nM. Consider `COc1cc(O)ccc1N1CCN(CCN(C(=O)C2CCCCC2)c2ccccc2OC(F)(F)F)CC1` [Example 93, 1[N-cyclohexylcarbonyl-N-(2-trifluoromethoxyphenyl)-2-aminoethyl]-4-(4-hydroxy-2-methoxyphenyl)piperazine], for which the Ki worked out at 1.6 nM.
